The record followed here is US8828929B2 (priority 2008, dated 2014).

The target in assay [1] is T1, HLA-A*0201 (Homo sapiens, UniProt P04439, /I218V/L300P/L318F/N151K/N90K/P208A/P217A/Q86G/Q94H/R138H/R169H/T345S).
T1 construct: endogenous in cells; host or cells: T2 cells (human lymphoid, TAP-deficient)
Briefly: cell-based. It is filed as binding.

Assay [2] deals with T2, HLA-A*0201 (Homo sapiens, UniProt P04439, D140Y/D185E/D98H/E176V/E277Q/G131W/G231S/I119V/I121R/I166T/I218V/L300P/L318F/N151K/N90K/P208A/P217A/Q86G/Q94H/R138H/R169H/T345S).
T2 construct: endogenous in cells; host or cells: T2 cells (human lymphoid, TAP-deficient)
Briefly: cell-based. It is filed as binding.

The subject of assay [3] is peptide-specific CTLs (IFN-γ-positive cells among CD8-positive cells). More on the design: species or system HLA-A2 transgenic mouse. The conditions noted are these: mouse, in vivo.
For assay [4] the test system is unchanged. Further details: species or system HLA-A2 transgenic mouse. The conditions noted are these: mouse, in vivo. This is another data set of the same source.
Assay [5] concerns target cells pulsed with the peptide. Further details: species or system HLA-A2 transgenic mouse. Particulars: mouse, in vivo.

Where no end group is shown, it is not given here.

Regarding CLDAGINYV [pp1a-2187], on HLA-A*0201 [1], the Affinity result is given as “High (key: High: less than 100 μM; Medium: 100 to 200 μM; Low: more than 200 μM)”. At HLA-A*0201 [2], this sequence had an EC50 of 3 µM. The “induction of IFN-γ-positive cells among CD8-positive cells” value in assay [3] is listed as “significantly induced IFN-γ-positive cells among CD8-positive cells”. For the same sequence, in assay [3] (iv), the “ICS (% in CD8+ cells)” value is “*0.19%”. Moreover, the CTL induction activity result in assay [4] is listed as “higher than that of the CTL epitope peptide of the Spike protein”. In addition, in assay [5], the CTL response activity result was “high CTL response activities” and the “peptide-specific lysis rates (%) of the target cells by CTLs” value was found to be 79.2%.
